{
  "source": "paper PMC8402619",
  "about": "(Viruses, 2021)",
  "key": {"[1]": {"target": "CYP2D6 (Homo sapiens, UniProt P10635)", "sequence (P10635 whole entry)": "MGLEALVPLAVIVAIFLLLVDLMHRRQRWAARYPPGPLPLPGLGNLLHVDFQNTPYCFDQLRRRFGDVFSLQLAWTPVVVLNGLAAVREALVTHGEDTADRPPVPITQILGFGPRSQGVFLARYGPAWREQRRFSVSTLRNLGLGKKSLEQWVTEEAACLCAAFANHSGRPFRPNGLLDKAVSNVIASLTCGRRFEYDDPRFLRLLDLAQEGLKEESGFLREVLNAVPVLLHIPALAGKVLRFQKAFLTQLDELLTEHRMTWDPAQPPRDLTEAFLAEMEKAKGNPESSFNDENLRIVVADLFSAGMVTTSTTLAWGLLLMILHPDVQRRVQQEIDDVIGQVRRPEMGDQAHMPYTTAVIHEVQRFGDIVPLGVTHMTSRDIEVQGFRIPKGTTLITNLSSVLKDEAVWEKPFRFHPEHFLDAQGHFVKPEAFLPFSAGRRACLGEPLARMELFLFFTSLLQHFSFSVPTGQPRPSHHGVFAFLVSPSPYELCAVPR", "assay": "Time-dependent CYP inhibition in pooled human liver microsomes", "type": "in vitro ADME"}, "[2]": {"target": "T1, CYP2C8 (Homo sapiens, UniProt P10632)", "T1 sequence (P10632 1-490)": "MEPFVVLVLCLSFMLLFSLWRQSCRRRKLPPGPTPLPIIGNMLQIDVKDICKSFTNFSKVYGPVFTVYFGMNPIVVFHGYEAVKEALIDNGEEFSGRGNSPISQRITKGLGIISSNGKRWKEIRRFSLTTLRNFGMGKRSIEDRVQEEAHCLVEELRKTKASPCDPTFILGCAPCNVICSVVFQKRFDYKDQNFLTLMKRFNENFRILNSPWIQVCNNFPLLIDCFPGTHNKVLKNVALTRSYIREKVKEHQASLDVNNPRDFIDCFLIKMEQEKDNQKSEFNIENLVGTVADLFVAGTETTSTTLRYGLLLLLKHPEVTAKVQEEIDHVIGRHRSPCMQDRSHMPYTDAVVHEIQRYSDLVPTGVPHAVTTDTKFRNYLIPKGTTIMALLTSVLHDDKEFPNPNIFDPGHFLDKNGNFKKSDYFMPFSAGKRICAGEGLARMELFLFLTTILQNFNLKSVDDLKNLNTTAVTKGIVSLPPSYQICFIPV", "assay": "Reversible CYP inhibition in pooled human liver microsomes", "type": "in vitro ADME"}, "[3]": {"assay": "Plasma protein binding by equilibrium dialysis, rat plasma", "type": "in vitro ADME", "conditions": "pH 7.4"}, "[4]": {"assay": "Metabolism in cryopreserved human hepatocyte incubations", "type": "in vitro ADME"}, "[5]": {"target": "T2, OAT1 (Homo sapiens, UniProt Q4U2R8)", "T2 construct": "expressed in transfected cells; host or cells: MDCKII", "T2 sequence (Q4U2R8 1-563)": "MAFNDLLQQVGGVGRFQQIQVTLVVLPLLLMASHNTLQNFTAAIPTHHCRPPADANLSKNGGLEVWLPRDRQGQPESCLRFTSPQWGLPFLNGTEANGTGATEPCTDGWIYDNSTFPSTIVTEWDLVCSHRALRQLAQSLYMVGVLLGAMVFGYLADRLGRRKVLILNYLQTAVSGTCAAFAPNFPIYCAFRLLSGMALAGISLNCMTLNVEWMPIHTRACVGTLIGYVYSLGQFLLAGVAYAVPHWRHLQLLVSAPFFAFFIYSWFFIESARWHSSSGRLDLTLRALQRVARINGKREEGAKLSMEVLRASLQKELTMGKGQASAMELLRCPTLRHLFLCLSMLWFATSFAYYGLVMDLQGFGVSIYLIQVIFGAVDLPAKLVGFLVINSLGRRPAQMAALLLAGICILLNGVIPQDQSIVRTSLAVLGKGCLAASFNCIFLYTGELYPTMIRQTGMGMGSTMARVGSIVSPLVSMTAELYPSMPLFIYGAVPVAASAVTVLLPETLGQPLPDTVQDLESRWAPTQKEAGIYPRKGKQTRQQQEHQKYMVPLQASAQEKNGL", "assay": "Islatravir uptake as substrate, MDCKII vs MDCKII-OAT1 cells", "type": "in vitro ADME"}, "[6]": {"test_system": "CYP1A2", "assay": "CYP induction in cryopreserved human hepatocytes", "conditions": "for mRNA Mean Fold Change ± SD CYP1A2: 48 h, n = 3 donors, vs DMSO vehicle"}, "[7]": {"assay": "Renal clearance after 1 mg/kg intravenous, rat", "type": "in vivo, male Wistar-Hannover rats", "conditions": "1 mg/kg intravenously"}, "[8]": {"target": "T3, OCT2 (Homo sapiens, UniProt O15244)", "T3 construct": "expressed in transfected cells; host or cells: CHO-K1", "T3 sequence (O15244 1-555)": "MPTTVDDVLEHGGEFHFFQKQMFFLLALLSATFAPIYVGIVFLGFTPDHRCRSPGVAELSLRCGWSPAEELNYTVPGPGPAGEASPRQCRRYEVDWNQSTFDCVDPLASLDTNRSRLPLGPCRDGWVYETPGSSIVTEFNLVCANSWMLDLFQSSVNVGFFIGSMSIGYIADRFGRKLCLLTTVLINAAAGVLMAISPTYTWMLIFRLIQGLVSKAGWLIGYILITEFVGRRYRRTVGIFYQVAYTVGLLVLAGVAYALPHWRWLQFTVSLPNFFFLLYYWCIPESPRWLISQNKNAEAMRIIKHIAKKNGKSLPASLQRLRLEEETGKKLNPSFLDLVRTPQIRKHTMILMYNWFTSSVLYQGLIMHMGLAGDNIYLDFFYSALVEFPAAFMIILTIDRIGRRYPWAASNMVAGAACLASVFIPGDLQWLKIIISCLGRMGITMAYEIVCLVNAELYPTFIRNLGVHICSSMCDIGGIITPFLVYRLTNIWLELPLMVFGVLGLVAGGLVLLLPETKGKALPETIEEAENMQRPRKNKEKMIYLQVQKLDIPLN", "assay": "Islatravir uptake as substrate, CHO-K1 vs CHO-K1-OCT2 cells", "type": "in vitro ADME"}},
  "data": [
    {"smiles": "C#C[C@]1(CO)O[C@@H](n2cnc3c(N)nc(F)nc32)C[C@@H]1O", "note": "[Islatravir, 4′-Ethynyl-2-fluoro-2′-deoxyadenosine]", "values": [
      {"measurement": "time-dependent inhibition", "setting": "[1]; CYP2D6, pre-incubation of 10 and 50 µM for up to 30 min", "value": "no time-dependent inhibition"},
      {"measurement": "DDI Potential", "setting": "[1]; CYP2D6 time dependent inhibition", "value": "Low risk ^h"},
      {"measurement": "IC50", "setting": "[1]; time dependent, CYP2D6, read-out: Islatravir IC50", "value": "> 50", "unit": "µM"},
      {"measurement": "DDI Potential", "setting": "[2]; CYP2C8 reversible inhibition, FDA, EMA, PMDA guidance", "value": "Low risk"},
      {"measurement": "Maximum Unbound Plasma Concentration (Imax,u) to Ki,u Ratio", "setting": "[2]; CYP2C8 reversible, 60 mg, Cmax 1.01 µM, fu,p 0.96, Ki,u = IC50/2", "value": "<0.019", "unit": "µM"},
      {"measurement": "IC50", "setting": "[2]; reversible, CYP2C8 amodiaquine N-deethylation, read-out: Islatravir IC50", "value": "> 100", "unit": "µM"},
      {"measurement": "fraction unbound at 24 h, 0.1 µM", "setting": "[3]", "value": "> 0.84"},
      {"measurement": "metabolites observed", "setting": "[4]", "value": "no detectable metabolites"},
      {"measurement": "Islatravir Uptake Transporter-Expressing Cells", "setting": "[5]; MDCKII-OAT1, 1 µM [3H]islatravir, 5 min, mean ± SD, n = 3", "value": "0.72 ± 0.04", "unit": "pmole/10^6 Cells"},
      {"measurement": "Fold-Difference", "setting": "[5]; OAT1, uptake into transporter-expressing cells to control cells, 5 min", "value": 1.04},
      {"measurement": "Islatravir Uptake Control Cells", "setting": "[5]; OAT1 row, MDCKII control cells, 1 µM [3H]islatravir, 5 min, mean ± SD, n = 3", "value": "0.69 ± 0.07", "unit": "pmole/10^6 Cells"},
      {"measurement": "Conclusions", "setting": "[5]; OAT1 substrate assessment", "value": "Non-substrate"},
      {"measurement": "mRNA Mean Fold Change ± SD CYP1A2", "setting": "[6]; 0.1 µM", "value": "0.4 ± 0.2"},
      {"measurement": "mRNA Mean Fold Change ± SD CYP1A2", "setting": "[6]; 0.5 µM", "value": "0.4 ± 0.2"},
      {"measurement": "mRNA Mean Fold Change ± SD CYP1A2", "setting": "[6]; 1 µM", "value": "0.5 ± 0.3"},
      {"measurement": "mRNA Mean Fold Change ± SD CYP1A2", "setting": "[6]; 5 µM", "value": "0.4 ± 0.3"},
      {"measurement": "mRNA Mean Fold Change ± SD CYP1A2", "setting": "[6]; 10 µM", "value": "0.5 ± 0.4"},
      {"measurement": "mRNA Mean Fold Change ± SD CYP1A2", "setting": "[6]; 20 µM", "value": "0.2 ± 0.2"},
      {"measurement": "mRNA response relative to positive control", "setting": "[6]; CYP1A2, each tested concentration 0.1-20 µM", "value": "less than 20%"},
      {"measurement": "enzyme activity, fold of solvent control", "setting": "[6]; CYP1A2 phenacetin O-deethylation, all islatravir concentrations", "value": "≤ 1.1", "unit": "fold"},
      {"measurement": "Renal Excretion (% Total Plasma Clearance)", "setting": "[7]", "value": 17, "unit": "%"},
      {"measurement": "CL renal", "setting": "[7]; male, Wistar-Hannover, plasma and urine, iv, urine 0-24 h", "value": 11.5, "unit": "mL/min/kg"},
      {"measurement": "Islatravir Uptake Transporter-Expressing Cells", "setting": "[8]; CHO-K1-OCT2, 1 µM [3H]islatravir, 5 min, mean ± SD, n = 3", "value": "0.79 ± 0.14", "unit": "pmole/10^6 Cells"},
      {"measurement": "Fold-Difference", "setting": "[8]; OCT2, uptake into transporter-expressing cells to control cells, 5 min", "value": 0.81},
      {"measurement": "Islatravir Uptake Control Cells", "setting": "[8]; OCT2 row, CHO-K1 control cells, 1 µM [3H]islatravir, 5 min, mean ± SD, n = 3", "value": "0.97 ± 0.01", "unit": "pmole/10^6 Cells"},
      {"measurement": "Conclusions", "setting": "[8]; OCT2 substrate assessment", "value": "Non-substrate"}
    ]}
  ]
}
